The numbers were not newly measured in US20050032677A1, “Fungicidal and/or bactericidal composition, production process thereof and sterilization method using the composition” (priority 2001, published 2005), which cites them from elsewhere.

Read-outs that look alike come from different tables or passages of the source. *1 amine or outer side, *2 acyl side, *3 side chain or, on linkers, in order; H or OH if unused. Where a SMILES comes first, the peptide text is derived from it. Bridges are numbered along the chain shown (N, C = ends). [ ]: non-standard residue; d: D form. X1 = CC(C)CCCCCCCCC[C@H](CC(=O)[*:1])O[*:2]

One data set relates to erythrocyte. The note with it: relative to mixing iturin and surfactin.
In the next data set the test system is erythrocyte membrane. The note with it: relative to mixing iturin and surfactin in the latter ratio (2:1).
In the next data set the test system is mouse. Particulars: hypodermic injection to a mouse.

Regarding `CC(C)CCCCCCCCC[C@@H]1CC(=O)N[C@@H](CCC(=O)O)C(=O)N[C@@H](CC(C)C)C(=O)N[C@H](CC(C)C)C(=O)N[C@@H](C(C)C)C(=O)N[C@@H](CC(=O)O)C(=O)N[C@H](CC(C)C)C(=O)N[C@@H](CC(C)C)C(=O)O1` [surfactin] (EL[dL]VD[dL]L; linker N-C via X1), the “critical micelle concentration (CMC)” value is 250 µM (aqueous solution) and 10 µM (in a 0.1M sodium hydrogencarbonate solution).
Broadly, the LD50 is the dose expected to kill half of the subjects tested. As to iturin, the “hemolysis activity relative to iturin and surfactin mixture” value in the data set with erythrocyte is listed as “about one sixth”. In addition, the “amount bound to the erythrocyte membrane relative to iturin:surfactin 2:1” value in the data set on erythrocyte membrane is given as “at most a half”. In addition, where the note is “aqueous solution”, the “critical micelle concentration (CMC)” value was 40 µM. Also, the LD50 in the data set on mouse is 157 mg/kg.
